According to patent US11684607B2, “Secnidazole for use in the treatment of bacterial vaginosis” (priority 2014, dated 2023):
Read-outs that look alike come from different tables or passages of the source.

Assay: Effect of a single 2 g dose of SYM-1219 on the plasma pharmacokinetics of EE2 and NET in healthy female subjects
Assay type: in vivo, human
Conditions: for AUC(0-t) / AUC(0-inf) / Cmax: female, human, plasma
Experimental: Methods: Fifty-four (54) healthy female subjects, ages 18-65, received EE2/NET alone and in combination, where SYM-1219+EE2/NET were co-administered on Day 1 (Group B1; N=27) or SYM-1219 on Day 1 and EE2/NET on Day 2 (Group B2; N=27). Serial blood samples were drawn to measure plasma concentrations of EE2/NET. […] Safety was evaluated by recording of adverse events, vital signs, ECGs and standard laboratory tests.

[1] = Group B1: Period 2 (EE2/NET followed by SYM-1219 2 grams on Day 1) vs Period 1 (EE2/NET alone)
[2] = Group B1: SYM-1219 2 g and EE2/NET co-administered on Day 1
[3] = Group B2: Period 2 (SYM-1219 2 grams on Day 1, EE2/NET on Day 2) vs Period 1 (EE2/NET alone)

With `C#C[C@]1(O)CC[C@H]2[C@@H]3CCc4cc(O)ccc4[C@H]3CC[C@@]21C` [EE2, ethinyl estradiol] the “EE2 AUC0-t, Geometric LSMean % Ratio (100 * Test/Reference)” value [1] was 94.26%, the “EE2 AUC0-∞, Geometric LSMean % Ratio (100 * Test/Reference)” value [1] was 105.37% and the “EE2 Cmax, Geometric LSMean % Ratio (100 * Test/Reference)” value [1] was 71.07%. For the same molecule, the “EE2 Cmax reduction” value [2] was 29%, the “change in EE2 AUC” value [2] was “no change” and the “EE2 AUC0-t, Geometric LSMean % Ratio (100 * Test/Reference)” value [3] was 99.04%. The “EE2 AUC0-∞, Geometric LSMean % Ratio (100 * Test/Reference)” value [3] was 93.32%, the “EE2 Cmax, Geometric LSMean % Ratio (100 * Test/Reference)” value [3] was 104.96% and the “EE2 PK alteration” value (Group B2: SYM-1219 2 g on Day 1, EE2/NET on Day 2) was “not altered”. The AUC(0-t) (Group B1 Period 1: EE2/NET alone, read-out: EE2 AUC0-t, Geometric Least Squares (LS) Means) was 0.627 ng·h/mL, the AUC(0-t) (Group B1 Period 1: EE2/NET alone, read-out: EE2 AUC0-t, Mean) was 0.644 ng·h/mL and the AUC(0-inf) (Group B1 Period 1: EE2/NET alone, read-out: EE2 AUC0-∞, Geometric Least Squares (LS) Means) was 0.878 ng·h/mL. It also gave an AUC(0-inf) (Group B1 Period 1: EE2/NET alone, read-out: EE2 AUC0-∞, Mean) of 0.911 ng·h/mL, a Cmax (Group B1 Period 1: EE2/NET alone, read-out: EE2 Cmax, Geometric Least Squares (LS) Means) of 0.0779 ng/mL and a Cmax (Group B1 Period 1: EE2/NET alone, read-out: EE2 Cmax, Mean) of 0.0806 ng/mL. It also gave an AUC(0-t) (Group B1 Period 2: EE2/NET followed by SYM-1219 2 grams on Day 1, read-out: EE2 AUC0-t, Geometric Least Squares (LS) Means) of 0.591 ng·h/mL, an AUC(0-t) (Group B1 Period 2: EE2/NET followed by SYM-1219 2 grams on Day 1, read-out: EE2 AUC0-t, Mean) of 0.616 ng·h/mL and an AUC(0-inf) (Group B1 Period 2: EE2/NET followed by SYM-1219 2 grams on Day 1, read-out: EE2 AUC0-∞, Geometric Least Squares (LS) Means) of 0.925 ng·h/mL. It also gave an AUC(0-inf) (Group B1 Period 2: EE2/NET followed by SYM-1219 2 grams on Day 1, read-out: EE2 AUC0-∞, Mean) of 0.954 ng·h/mL, a Cmax (Group B1 Period 2: EE2/NET followed by SYM-1219 2 grams on Day 1, read-out: EE2 Cmax, Geometric Least Squares (LS) Means) of 0.0554 ng/mL and a Cmax (Group B1 Period 2: EE2/NET followed by SYM-1219 2 grams on Day 1, read-out: EE2 Cmax, Mean) of 0.0599 ng/mL. The AUC(0-t) (Group B2 Period 1: EE2/NET alone, read-out: EE2 AUC0-t, Geometric Least Squares (LS) Means) was 0.65 ng·h/mL, the AUC(0-t) (Group B2 Period 1: EE2/NET alone, read-out: EE2 AUC0-t, Mean) was 0.68 ng·h/mL and the AUC(0-inf) (Group B2 Period 1: EE2/NET alone, read-out: EE2 AUC0-∞, Geometric Least Squares (LS) Means) was 0.945 ng·h/mL. For the same molecule, the AUC(0-inf) (Group B2 Period 1: EE2/NET alone, read-out: EE2 AUC0-∞, Mean) was 0.995 ng·h/mL, the Cmax (Group B2 Period 1: EE2/NET alone, read-out: EE2 Cmax, Geometric Least Squares (LS) Means) was 0.083 ng/mL and the Cmax (Group B2 Period 1: EE2/NET alone, read-out: EE2 Cmax, Mean) was 0.0891 ng/mL. The AUC(0-t) (Group B2 Period 2: SYM-1219 2 grams on Day 1, EE2/NET on Day 2, read-out: EE2 AUC0-t, Geometric Least Squares (LS) Means) was 0.644 ng·h/mL, the AUC(0-t) (Group B2 Period 2: SYM-1219 2 grams on Day 1, EE2/NET on Day 2, read-out: EE2 AUC0-t, Mean) was 0.669 ng·h/mL and the AUC(0-inf) (Group B2 Period 2: SYM-1219 2 grams on Day 1, EE2/NET on Day 2, read-out: EE2 AUC0-∞, Geometric Least Squares (LS) Means) was 0.882 ng·h/mL. For the same molecule, the AUC(0-inf) (Group B2 Period 2: SYM-1219 2 grams on Day 1, EE2/NET on Day 2, read-out: EE2 AUC0-∞, Mean) was 0.937 ng·h/mL, the Cmax (Group B2 Period 2: SYM-1219 2 grams on Day 1, EE2/NET on Day 2, read-out: EE2 Cmax, Geometric Least Squares (LS) Means) was 0.0872 ng/mL and the Cmax (Group B2 Period 2: SYM-1219 2 grams on Day 1, EE2/NET on Day 2, read-out: EE2 Cmax, Mean) was 0.0926 ng/mL.
